Columns and labels:
Assay type in all cases: functional, cell-based
Bile acid receptor = target: T1, Bile acid receptor (Homo sapiens, UniProt Q96RI1); experiment: Agonist activity at human […] FXR LBD expressed in HEK293 cells coexpressing GAL4-DNA bindig domain and pFRluc by mammalian one-hybrid assay; conditions: read-out: EC50
T1 sequence (Q96RI1 whole entry): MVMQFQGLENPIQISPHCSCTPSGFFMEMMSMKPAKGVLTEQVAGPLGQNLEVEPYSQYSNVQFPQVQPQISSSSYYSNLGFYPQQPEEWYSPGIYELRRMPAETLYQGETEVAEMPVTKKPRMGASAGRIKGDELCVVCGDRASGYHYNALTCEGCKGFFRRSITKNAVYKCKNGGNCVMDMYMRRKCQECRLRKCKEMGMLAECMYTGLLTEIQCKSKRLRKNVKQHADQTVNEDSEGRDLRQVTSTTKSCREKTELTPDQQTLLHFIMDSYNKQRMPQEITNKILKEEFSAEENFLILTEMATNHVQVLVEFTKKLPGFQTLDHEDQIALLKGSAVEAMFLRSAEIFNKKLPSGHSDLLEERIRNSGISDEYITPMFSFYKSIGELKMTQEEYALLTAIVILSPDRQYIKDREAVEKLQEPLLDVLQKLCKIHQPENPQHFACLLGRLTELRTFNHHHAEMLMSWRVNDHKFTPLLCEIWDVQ

[1] = target: T2, Retinoic acid receptor alpha (Homo sapiens, UniProt P10276); experiment: Agonist activity at RARalpha-LBD expressed in HEK293 cells assessed as Gal4-DBD interaction by cellular mammalian one hybrid assay
T2 sequence (P10276 whole entry): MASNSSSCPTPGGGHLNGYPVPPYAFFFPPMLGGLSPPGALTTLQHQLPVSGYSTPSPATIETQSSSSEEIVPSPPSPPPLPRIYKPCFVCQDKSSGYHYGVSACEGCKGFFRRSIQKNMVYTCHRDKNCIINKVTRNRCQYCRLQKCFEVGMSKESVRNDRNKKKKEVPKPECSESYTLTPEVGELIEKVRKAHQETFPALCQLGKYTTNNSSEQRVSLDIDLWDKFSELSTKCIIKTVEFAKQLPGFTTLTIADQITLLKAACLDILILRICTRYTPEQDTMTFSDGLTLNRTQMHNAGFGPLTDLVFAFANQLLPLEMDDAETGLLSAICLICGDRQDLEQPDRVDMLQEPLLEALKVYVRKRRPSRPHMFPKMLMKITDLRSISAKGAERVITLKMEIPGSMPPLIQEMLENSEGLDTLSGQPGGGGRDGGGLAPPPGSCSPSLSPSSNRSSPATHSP

[2] = target: T3, Mineralocorticoid receptor (Homo sapiens) (UniProt P08235); experiment: Agonist activity at mineralocorticoid receptor-LBD expressed in HEK293 cells assessed as Gal4-DBD interaction by cellular mammalian one hybrid assay relative to mineralocorticoid
T3 sequence (whole entry): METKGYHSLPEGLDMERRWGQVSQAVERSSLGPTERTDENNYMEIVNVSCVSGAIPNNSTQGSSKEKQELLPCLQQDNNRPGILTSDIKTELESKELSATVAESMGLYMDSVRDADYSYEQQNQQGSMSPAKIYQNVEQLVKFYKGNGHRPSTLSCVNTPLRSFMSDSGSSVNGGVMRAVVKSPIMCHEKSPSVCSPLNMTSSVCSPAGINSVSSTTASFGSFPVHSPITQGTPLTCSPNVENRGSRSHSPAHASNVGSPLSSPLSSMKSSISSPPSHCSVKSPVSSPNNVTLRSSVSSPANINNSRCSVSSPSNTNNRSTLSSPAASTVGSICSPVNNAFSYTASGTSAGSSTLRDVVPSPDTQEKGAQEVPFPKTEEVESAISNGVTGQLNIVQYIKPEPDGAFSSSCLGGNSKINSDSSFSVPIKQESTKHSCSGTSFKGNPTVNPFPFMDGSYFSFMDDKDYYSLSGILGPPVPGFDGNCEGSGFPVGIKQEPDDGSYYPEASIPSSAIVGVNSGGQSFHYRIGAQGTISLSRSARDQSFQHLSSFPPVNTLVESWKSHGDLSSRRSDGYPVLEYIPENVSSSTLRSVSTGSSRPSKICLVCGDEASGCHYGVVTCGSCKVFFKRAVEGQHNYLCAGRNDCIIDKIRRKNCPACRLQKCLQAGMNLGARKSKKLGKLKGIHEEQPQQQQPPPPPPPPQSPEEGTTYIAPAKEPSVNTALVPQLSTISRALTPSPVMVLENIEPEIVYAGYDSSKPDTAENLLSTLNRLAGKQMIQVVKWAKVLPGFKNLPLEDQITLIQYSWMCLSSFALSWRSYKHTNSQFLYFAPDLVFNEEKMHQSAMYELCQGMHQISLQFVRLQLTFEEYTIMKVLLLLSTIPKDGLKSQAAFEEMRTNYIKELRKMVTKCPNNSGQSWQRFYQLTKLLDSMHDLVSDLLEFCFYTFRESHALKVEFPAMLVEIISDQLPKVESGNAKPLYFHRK

[3] = target: T4, Oxysterols receptor LXR-alpha (Homo sapiens) (UniProt Q13133); experiment: Agonist activity at LXRalpha-LBD expressed in HEK293 cells assessed as Gal4-DBD interaction by cellular mammalian one hybrid assay relative to T0901317
T4 sequence (whole entry): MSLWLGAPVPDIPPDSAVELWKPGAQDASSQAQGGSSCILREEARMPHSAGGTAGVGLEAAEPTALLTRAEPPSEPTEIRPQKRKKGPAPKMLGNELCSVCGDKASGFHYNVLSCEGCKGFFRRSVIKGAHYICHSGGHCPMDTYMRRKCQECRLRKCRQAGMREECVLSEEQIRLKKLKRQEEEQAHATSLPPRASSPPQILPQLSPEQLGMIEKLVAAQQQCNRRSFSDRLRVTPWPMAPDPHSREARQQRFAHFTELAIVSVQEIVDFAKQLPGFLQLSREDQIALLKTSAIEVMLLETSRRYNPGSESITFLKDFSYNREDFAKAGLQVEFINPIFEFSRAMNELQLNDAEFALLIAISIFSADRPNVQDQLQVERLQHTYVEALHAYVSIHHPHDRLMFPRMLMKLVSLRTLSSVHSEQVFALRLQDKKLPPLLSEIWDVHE

[4] = target: T5, Vitamin D3 receptor (Homo sapiens) (UniProt P11473); experiment: Agonist activity at VDR-LBD expressed in HEK293 cells assessed as Gal4-DBD interaction by cellular mammalian one hybrid assay relative to vitamin D
T5 sequence (whole entry): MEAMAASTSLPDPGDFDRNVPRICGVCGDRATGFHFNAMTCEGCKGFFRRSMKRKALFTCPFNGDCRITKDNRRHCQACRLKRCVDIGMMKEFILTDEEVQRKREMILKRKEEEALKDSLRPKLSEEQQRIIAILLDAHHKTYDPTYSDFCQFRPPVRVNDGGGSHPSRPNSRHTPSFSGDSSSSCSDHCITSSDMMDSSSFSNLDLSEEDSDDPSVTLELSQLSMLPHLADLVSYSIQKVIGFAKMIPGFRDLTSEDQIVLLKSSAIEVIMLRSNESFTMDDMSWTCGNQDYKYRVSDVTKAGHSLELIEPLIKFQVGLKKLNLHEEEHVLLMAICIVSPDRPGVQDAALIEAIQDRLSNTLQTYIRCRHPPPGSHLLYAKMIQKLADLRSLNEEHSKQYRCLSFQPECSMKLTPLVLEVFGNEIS

| EC50 (Bile acid receptor) [nM] | EC50 [1] [nM] | Efficacy [2] [%] | Efficacy [3] [%] | Efficacy [4] [%] | Compound |
| --- | --- | --- | --- | --- | --- |
| 9 | > 10000 | 0 | 0 | 0 | CN(Cc1cccc(C(=O)O)c1)c1ccc(OCc2c(-c3c(Cl)cccc3Cl)noc2C2CC2)nc1C(F)(F)F |
| 90 | > 10000 | 0 | 0 | 0 | CC(C)c1onc(-c2c(Cl)cccc2Cl)c1COc1ccc(N(C)Cc2ccc(C(=O)O)cc2)c(C(F)(F)F)n1 |
| 30 | > 10000 | 0 | 0 | 0 | CN(Cc1ccc(C(=O)O)cc1)c1ccc(OCc2c(-c3c(Cl)cccc3Cl)noc2C2CC2)nc1C(F)(F)F |
